Measured values as given in the supplement of paper PMC11208160.

Test: recombinant UMI read abundance after kanamycin selection (control-corrected) (log10(CPM+1)); higher = more efficient recombination; extreme values may be limits of the assay; sequences stand for … in AGTGCAGAGAAAATCGGCCAGTTTTCTCTGCCTGCAGTCCGCATGCCGTGGGACCCCTTGGGTTCTAACCTGTTGCCTAGATTTATGCAGCGGACTGCCTTTCTCCCAAAGTGATAAACCGG…AGGTTGGTTTCACT; site = the 11-nt donor
Procedure, shortened: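 Each donor and donor-binding-loop pair was tracked by a 12-nt UMI on a plasmid carrying a promoterless kanamycin gene. With a second plasmid supplying a fixed target and T7-inducible IS621 bridge recombinase, the pool was plated in Escherichia coli on IPTG (0.07 mM) plus kanamycin or unselected. Sequencing of recombinant UMIs across the donor–target junction gave counts expressed as log10(CPM+1) after replicate averaging and control-derived scaling.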
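Also: IS621 bridge recombinase in Escherichia coli cells against a fixed T5 target plasmid.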

| Sequence | recombinant UMI read abundance (log10) |
| --- | --- |
| CCAGTATCATGGACCGGTTTTCCCGGTAATCCGTATTTGCA (site TCAGTATCTTG) | 0 |
| GCTACCGCATGGACCGGTTTTCCCGGTAATCCGTATTTGCC (site GCTACAGCTGG) | 0 |
| CGGGACCCATGGACCGGTTTTCCCGGTAATCCGTATTTGAT (site CGGGAACCTAT) | 0.00853 |
| AGTCACTCATGGACCGGTTTTCCCGGTAATCCGTATTTGCA (site AGTCACTCTTG) | 2.8 |
| CTGCAAGCATGGACCGGTTTTCCCGGTAATCCGTATTTGTA (site CTGCAAGCTTA) | 1.8 |
| CGGAATCCATGGACCGGTTTTCCCGGTAATCCGTATTTGAC (site CGGAATCCTGT) | 1.1 |
| CCGTTAGCATGGACCGGTTTTCCCGGTAATCCGTATTTGTC (site CCGTTAGCTCA) | 0.00762 |
| GGGGCTCCATGGACCGGTTTTCCCGGTAATCCGTATTTGCA (site GGGGCGCCTTG) | 0.0195 |
| CGTTCGTCATGGACCGGTTTTCCCGGTAATCCGTATTTGCT (site CGATCATCTAG) | 0 |
| ATGGAAACATGGACCGGTTTTCCCGGTAATCCGTATTTGCG (site ATGGAAACTCG) | 2.39 |
| TTCGACTCATGGACCGGTTTTCCCGGTAATCCGTATTTGTT (site TTCGACTCTAA) | 1.01 |
| TTTATTACATGGACCGGTTTTCCCGGTAATCCGTATTTGGT (site TTTATTACTAC) | 0.0132 |
| CCCATAACATGGACCGGTTTTCCCGGTAATCCGTATTTGTC (site CCCATAACTGA) | 0 |
| GAGCTCACATGGACCGGTTTTCCCGGTAATCCGTATTTGAT (site GAGCTCTCTAT) | 0.783 |
| ATCCAAGCATGGACCGGTTTTCCCGGTAATCCGTATTTGAG (site ATCCACGCTCT) | 0.0466 |
| CCGTTAGCATGGACCGGTTTTCCCGGTAATCCGTATTTGTA (site CCGTTAGCTAA) | 0.0181 |
| CAAGGAGCATGGACCGGTTTTCCCGGTAATCCGTATTTGCT (site CAAGTAGCTAG) | 2.2 |
| CTACGAACATGGACCGGTTTTCCCGGTAATCCGTATTTGGA (site CTACCAACTTC) | 0.0142 |
| CCCGCTCCATGGACCGGTTTTCCCGGTAATCCGTATTTGCA (site CCCGATCCTTG) | 0 |
| GTGGAGGCATGGACCGGTTTTCCCGGTAATCCGTATTTGTG (site GTGGATGCTCA) | 1.27 |
| CTTCTAACATGGACCGGTTTTCCCGGTAATCCGTATTTGCG (site CTTCTAACTCG) | 0.213 |
| AATGTAGCATGGACCGGTTTTCCCGGTAATCCGTATTTGCT (site AATGTAGCTAG) | 1.55 |
| CCTAAAGCATGGACCGGTTTTCCCGGTAATCCGTATTTGAT (site CCTACAGCTAT) | 0.0037 |
| CTCCCTACATGGACCGGTTTTCCCGGTAATCCGTATTTGCG (site CTCCCTACTCT) | 0.55 |
| GAACTGGCATGGACCGGTTTTCCCGGTAATCCGTATTTGCT (site GAACTGGCTAG) | 0.00438 |

| Sequence | recombinant UMI read abundance (log10) |
| --- | --- |
| TAACGCACATGGACCGGTTTTCCCGGTAATCCGTATTTGGT (site TAACGCACTAC) | 0.736 |
| CGGAATCCATGGACCGGTTTTCCCGGTAATCCGTATTTGGT (site CGGAATCCTAT) | 0 |
| ATCTTTACATGGACCGGTTTTCCCGGTAATCCGTATTTGAC (site ATCTGTACTGT) | 0.247 |
| CCGTTTTCATGGACCGGTTTTCCCGGTAATCCGTATTTGCT (site CCGTTTGCTAG) | 0 |
| GTCTATACATGGACCGGTTTTCCCGGTAATCCGTATTTGAC (site GTCTATACTGT) | 2.33 |
| TCAGAGACATGGACCGGTTTTCCCGGTAATCCGTATTTGCG (site TCATAGACTCG) | 0.524 |
| CAAGTATCATGGACCGGTTTTCCCGGTAATCCGTATTTGAC (site CGAGTATCTGT) | 2.2 |
| AGAAAAACATGGACCGGTTTTCCCGGTAATCCGTATTTGCA (site AGGAAGACTTG) | 0 |
| GAGCTTACATGGACCGGTTTTCCCGGTAATCCGTATTTGAT (site GAGCTCACTAT) | 0.0125 |
| TCATTCTCATGGACCGGTTTTCCCGGTAATCCGTATTTGCA (site TCATTCTCTTG) | 1.41 |
| CAAGCGCCATGGACCGGTTTTCCCGGTAATCCGTATTTGTA (site CAAGCGCCTCA) | 0.173 |
| CGGTTTACATGGACCGGTTTTCCCGGTAATCCGTATTTGCT (site CTGTTTACTAG) | 1.21 |
| CAATTCCCATGGACCGGTTTTCCCGGTAATCCGTATTTGCT (site CAATTCCCTAA) | 0.188 |
| ATCCAAGCATGGACCGGTTTTCCCGGTAATCCGTATTTGAG (site ATGCAAGCTCT) | 0.0198 |
| CCGCATCCATGGACCGGTTTTCCCGGTAATCCGTATTTGGG (site CCGCATCCTCC) | 0.0031 |
| CACATGACATGGACCGGTTTTCCCGGTAATCCGTATTTGGA (site CACATGACTTC) | 1.1 |
| CGGGCGTCATGGACCGGTTTTCCCGGTAATCCGTATTTGCC (site CGGGTGTCTGG) | 0 |
| TAGCCCTCATGGACCGGTTTTCCCGGTAATCCGTATTTGGT (site TAGCCGTCTAC) | 0.0119 |
| ATTGCCCCATGGACCGGTTTTCCCGGTAATCCGTATTTGTC (site ATTGCCCCTGA) | 0 |
| TGTGGAGCATGGACCGGTTTTCCCGGTAATCCGTATTTGGC (site TGTGGAGCTGC) | 1.6 |
| GCCACGACATGGACCGGTTTTCCCGGTAATCCGTATTTGTA (site GCCACGCCTTA) | 0.00858 |
| TAATGATCATGGACCGGTTTTCCCGGTAATCCGTATTTGGG (site TAATGACCTCC) | 0.00916 |
| GCACCTTCATGGACCGGTTTTCCCGGTAATCCGTATTTGTT (site GCACCTTCTAA) | 1.09 |
| AGAAAGGCATGGACCGGTTTTCCCGGTAATCCGTATTTGTT (site AGAAAGGCTAC) | 0 |
| GGCGGGGCATGGACCGGTTTTCCCGGTAATCCGTATTTGTA (site GGCGGGGCTTA) | 1.53 |

| Sequence | recombinant UMI read abundance (log10) |
| --- | --- |
| GGAGTGGCATGGACCGGTTTTCCCGGTAATCCGTATTTGCT (site GGAGTGGCTAC) | 0.163 |
| TCCCAATCATGGACCGGTTTTCCCGGTAATCCGTATTTGTT (site TCCCAATCTAA) | 0.00639 |
| GCTTGCCCATGGACCGGTTTTCCCGGTAATCCGTATTTGAG (site GCTTGCCCTAT) | 0.0201 |
| ACCTTCTCATGGACCGGTTTTCCCGGTAATCCGTATTTGGG (site TCCTTCTCTCC) | 0.00341 |
| GATACTGCATGGACCGGTTTTCCCGGTAATCCGTATTTGTC (site GATACTGCTGA) | 1.28 |
| CCTAATACATGGACCGGTTTTCCCGGTAATCCGTATTTGGC (site CCTAATACTGT) | 0 |
| TGAACATCATGGACCGGTTTTCCCGGTAATCCGTATTTGGC (site TGAACATCTGC) | 1.37 |
| TGACTGGCATGGACCGGTTTTCCCGGTAATCCGTATTTGTA (site TGACTGGCTTA) | 1.34 |
| CACACCTCATGGACCGGTTTTCCCGGTAATCCGTATTTGCC (site CACCCCTCTGG) | 1.27 |
| CTTGTCTCATGGACCGGTTTTCCCGGTAATCCGTATTTGTA (site CTTTTCTCTTA) | 0 |
| ATCTATACATGGACCGGTTTTCCCGGTAATCCGTATTTGAC (site ATTTATACTGT) | 0 |
| CGATCACCATGGACCGGTTTTCCCGGTAATCCGTATTTGCT (site CGATCATCTAG) | 0 |
| AGAGTACCATGGACCGGTTTTCCCGGTAATCCGTATTTGCA (site ACAGTATCTTG) | 1.61 |
| AGGCTAGCATGGACCGGTTTTCCCGGTAATCCGTATTTGTT (site AGGCTAGCTAA) | 0.779 |
| TAGAATACATGGACCGGTTTTCCCGGTAATCCGTATTTGCG (site TAGAATACTGG) | 0 |
| ACACATACATGGACCGGTTTTCCCGGTAATCCGTATTTGAC (site ACACATACTGT) | 2.71 |
| TAAAGGCCATGGACCGGTTTTCCCGGTAATCCGTATTTGTA (site TAAAGTCCTTA) | 0.12 |
| CTAGTATCATGGACCGGTTTTCCCGGTAATCCGTATTTGAT (site CTAGTATCTCT) | 0.557 |
| AGTCGGTCATGGACCGGTTTTCCCGGTAATCCGTATTTGGC (site AGTCGGTCTGC) | 0 |
| ATCCAAGCATGGACCGGTTTTCCCGGTAATCCGTATTTGAG (site CTCCAAGCTCT) | 0.656 |
| CCTAATACATGGACCGGTTTTCCCGGTAATCCGTATTTGGC (site CCTAATACTAC) | 0.0181 |
| CGGAATCCATGGACCGGTTTTCCCGGTAATCCGTATTTGTA (site CGGAATCCTAA) | 0 |
| CTAATCTCATGGACCGGTTTTCCCGGTAATCCGTATTTGAC (site CTAATCTCTGT) | 2.44 |
| GTTGTTCCATGGACCGGTTTTCCCGGTAATCCGTATTTGGT (site GTTGTGCCTAC) | 0.03 |
| AATTAAGCATGGACCGGTTTTCCCGGTAATCCGTATTTGGA (site AATTATGCTTC) | 0.412 |
